Entries after “also recorded” stand apart in the source; their conditions may differ. Read-outs that look alike come from different tables or passages of the source. Marks after values point to notes of the source that are not given here. Each block holds one compound with its values, some of them ahead of it.
Columns and labels:
[1] = Single-dose pharmacokinetics after IV bolus administration of EK-ECP; type: in vivo, male Sprague–Dawley rats; conditions: IV bolus 10 mg/kg EK-ECP; for T1/2 (terminal half-life) / half-life / AUC(0-t) / Vd / AUC(0-inf) / MRT last / C0: mean (CV); for T1/2 (terminal half-life) / half-life / AUC(0-t) / Vd: 10 mg/kg; for Tlast: median (minimum-maximum); for half-life / AUC(0-t) / Vd / AUC(0-inf) / MRT last / C0 / clearance: male, Sprague-Dawley, rat; for half-life / AUC(0-t) / Vd: iv; for clearance: read-out: Mean clearance (Cl) (converted)
Protocol: (§1) EK-ECP was administered to male Sprague–Dawley rats by either IV bolus (Group 1, 10 mg/kg) or oral gavage (Groups 2, 3 or 4, at 10, 100 or 1000 mg/kg, respectively) administration. Blood collection intervals were pre dose (0), and 0.25, 0.5, 1, 2, 4, 6, 8, 12, 24 and 36 h post dose. Plasma samples were analyzed for concentrations of 8,8′-bieckol, dieckol, and PFF-A; all pre-dose sample results were less than the lower limit of quantitation (LLOQ < 1 ng/mL). The time profiles of the plasma concentrations of 8,8′-bieckol, dieckol, and PFF-A in individual animals are illustrated in Figure 4. The mean pharmacokinetic parameters and corresponding coefficient of variation (CV) following IV administration of 10 mg/kg EK-ECP to male rats are illustrated in Table 1. Those following oral administrations of 10, 100 and 1000 mg/kg EK-ECP to male rats are illustrated in Table 2.
(§2) Total of 20 male CD® [Crl:CD®(SD)] rats (approximately 11.5 weeks of age) obtained from Charles River Laboratories (Portage, MI, USA) were used in our study. These included five rats with both jugular and femoral vein cannulations, and 15 rats with jugular vein cannulations. Of the 20 animals received, 16 male rats were placed in the study, comprising four rats with both jugular and femoral vein cannulations, and 12 rats with jugular vein cannulations. The rats were housed in the Mattawan facility of MPI Research Inc (currently Charles River Laboratories, Mattawan, MI, USA). Animal welfare for this study was in compliance with the U.S. Department of Agriculture’s (USDA) Animal Welfare Act (9 CFR Parts 1, 2 and 3). This facility maintained an animal welfare assurance statement with the National Institutes of Health Office of Laboratory Animal Welfare. All procedures were approved before the study by the institutional animal care utilization committee. Animals were individually housed and fed a basal diet of Lab Diet Certified Rodent Diet #5002, PMI Nutrition International, Inc. Food and water was available ad libitum except during fasting periods, when food was withheld, and during any required restraint periods, when both food and water were withheld. Animal rooms were maintained at (20 ± 2) °C and (50 ± 20)% relative humidity with a 12 h light/dark cycle throughout the study.
(§3) For intravenous administration, EK-ECP was dissolved in 70/25/5 (v/v) phosphate-buffered saline (PBS)/propylene glycol/ethanol (pH 5.1 final concentration of 2 mg/mL) and stabilized at room temperature for 24 h. For oral administration, after an amount of EK-ECP appropriate to the final targeted formulation concentrations was weighed and placed in a bottle, a small amount of the vehicle (water for injection) was added and mixed using a vortex mixer and heated to between 60 to 70 °C until homogeneously suspended. Additional amounts of the vehicle were gradually added to yield the targeted EK-ECP concentrations (1, 10, and 100 mg/mL). Dosing occurred within 4 h after preparation completion. The individual constituent doses of dieckol, 8,8′-bieckol, and PFF-A in each dosing formulation were analyzed by RP-HPLC followed by interpolation of the corresponding area% to the calibration curve prepared with known concentrations of isolated standards. The animals were fasted for a minimum of 4 h prior to dosing and through the first 4 h of blood sample collection. Each animal in Group 1 received a single intravenous (IV) dose of the 10 mg/kg EK-ECP. The intravenous doses were administered as a slow bolus injection over 5 min through the femoral vein cannula. The cannula was flushed with approximately 0.3 mL of sterile 0.9% sodium chloride for injection, USP, immediately following dosing. Each animal in Groups 2, 3 and 4 received a single oral (PO) gavage dose of the appropriate test article formulation, as outlined Table 3. Oral gavage dosing formulations were continuously stirred throughout dosing. […]

[2] = Single-dose pharmacokinetics and bioavailability after oral gavage administration of EK-ECP; type: in vivo, male Sprague–Dawley rats; conditions: for Tlast / Tmax: median (minimum-maximum); for half-life / AUC(0-t): po; for Vd/F: read-out: Vz/F
Protocol: as §1, §2, §3

mouse-model = tested on: mouse-model; design: method as in PMID 16042079; conditions: oral administration, mouse model ref 64; cited from earlier work
[3] = stated in the discussion without data or reference; cited from earlier work
[4] = PO 1000 mg/kg EK-ECP (Group 4), PFF-A in a single rat
[5] = male, Sprague-Dawley, rat, in vivo, PO 100 mg/kg EK-ECP, mean (CV)
[6] = male, Sprague-Dawley, rat, in vivo, PO 1000 mg/kg EK-ECP, mean (CV)

Structure (SMILES): Oc1cc(O)cc(Oc2c(O)cc(O)c3c2Oc2c(cc(O)c(-c4c(O)cc5c(c4O)Oc4c(Oc6cc(O)cc(O)c6)c(O)cc(O)c4O5)c2O)O3)c1 [8,8′-bieckol]
plasma concentrations quantifiable up to [1]: 36 h | T1/2 (terminal half-life) [1]: 9.42 (9) h | Tlast [1]: 36 (36–36) h | half-life ([1]; in vivo, ln(2)·MRTlast, read-out: Effective T1/2 (converted)): 1.3 h | AUC(0-t) ([1]; in vivo, read-out: AUC(0–24h)): 6540 ng·h/mL | AUC(0-t) ([1]; in vivo, read-out: AUCTlast): 6620 ng·h/mL | half-life ([1]; in vivo, read-out: T1/2 (terminal half-life) (converted)): ~9.42 h | Vd ([1]; in vivo, read-out: Vss): 0.366 L/kg | Vd ([1]; in vivo, read-out: Vz): 2.2 L/kg | AUC(0-inf) ([1]; in vivo): 6670 ng·h/mL | MRT last ([1]; in vivo): 1.88 h | C0 ([1]; in vivo, plasma): 7220 ng/mL | clearance ([1]; in vivo): 2.7 mL/min/kg | plasma concentrations quantifiable up to ([2]; PO 100 mg/kg EK-ECP (Group 3)): 12 h | Tlast ([2]; PO 100 mg/kg EK-ECP): 8 (8–12) h | plasma concentrations quantifiable up to [2, 4]: 36 h | Effective T1/2 ([2]; PO 1000 mg/kg EK-ECP, mean (CV), ln(2)·MRTlast, 1000 mg/kg): 4.11 (16) h | Tlast ([2]; PO 1000 mg/kg EK-ECP): 36 (36–36) h | fold increase in AUCTlast for a 1:10-fold increase in dose ([2]; PO 100 to 1000 mg/kg EK-ECP): ~84 fold | fold increase in Cmax for a 1:10-fold increase in dose ([2]; PO 100 to 1000 mg/kg EK-ECP): ~71 fold | half-life ([2]; male, Sprague-Dawley, rat, in vivo, 100 mg/kg, PO 100 mg/kg EK-ECP, mean (CV), ln(2)·MRTlast, read-out: Effective T1/2 (converted)): 2.24 h | AUC(0-t) ([2]; male, Sprague-Dawley, rat, in vivo, 100 mg/kg, PO 100 mg/kg EK-ECP, mean (CV), read-out: AUC(0–24h)): 41.5 ng·h/mL | AUC(0-t) ([2]; male, Sprague-Dawley, rat, in vivo, 100 mg/kg, PO 100 mg/kg EK-ECP, mean (CV), read-out: AUCTlast): 37.7 ng·h/mL | half-life ([2]; male, Sprague-Dawley, rat, in vivo, 100 mg/kg, PO 100 mg/kg EK-ECP, mean (CV), read-out: T1/2 (terminal half-life) (converted)): 2.95 h | half-life ([2]; male, Sprague-Dawley, rat, in vivo, 1000 mg/kg, PO 1000 mg/kg EK-ECP, mean (CV), ln(2)·MRTlast, read-out: Effective T1/2 (converted)): 4.41 h | AUC(0-t) ([2]; male, Sprague-Dawley, rat, in vivo, 1000 mg/kg, PO 1000 mg/kg EK-ECP, mean (CV), read-out: AUC(0–24h)): 3050 ng·h/mL | AUC(0-t) ([2]; male, Sprague-Dawley, rat, in vivo, 1000 mg/kg, PO 1000 mg/kg EK-ECP, mean (CV), read-out: AUCTlast): 3170 ng·h/mL | half-life ([2]; male, Sprague-Dawley, rat, in vivo, 1000 mg/kg, PO 1000 mg/kg EK-ECP, mean (CV), read-out: T1/2 (terminal half-life) (converted)): 6.63 h | bioavailability ([2]; male, Sprague-Dawley, rat, in vivo, 100 and 1000 mg/kg oral dose of EK-ECP versus IV 10 mg/kg, dose-corrected, read-out: Bioavailability following oral gavage administration): 0.069 to 0.5% | Cmax ([2]; male, Sprague-Dawley, rat, in vivo, PO 100 mg/kg EK-ECP (Group 3), mean (CV)): 11.2 ng/mL | AUC(0-inf) [2, 5]: 44 ng·h/mL | MRT last [2, 5]: 3.23 h | Vd/F [2, 5]: 1060 L/kg | Tmax ([2]; male, Sprague-Dawley, rat, in vivo, PO 100 mg/kg EK-ECP): 0.25 to 4 h | Cmax ([2]; male, Sprague-Dawley, rat, in vivo, PO 1000 mg/kg EK-ECP (Group 4), mean (CV), PFF-A N = 1): 795 ng/mL | AUC(0-inf) [2, 6]: 3210 ng·h/mL | MRT last [2, 6]: 5.93 h | Vd/F [2, 6]: 342 L/kg | Tmax ([2]; male, Sprague-Dawley, rat, in vivo, PO 1000 mg/kg EK-ECP): 0.5 h

plasma concentrations quantifiable up to [1]: 2 h | T1/2 (terminal half-life) [1]: 0.731 (4) ^c h | Tlast [1]: 2 (1–2) h | half-life ([1]; plasma, ln(2)·MRTlast, read-out: Effective T1/2 (converted)): 0.36 h | AUC(0-t) ([1]; plasma, read-out: AUC(0–24h)): 9.03 ng·h/mL | AUC(0-t) ([1]; plasma, read-out: AUCTlast): 7.81 ng·h/mL | half-life ([1]; plasma, read-out: T1/2 (terminal half-life) (converted)): ~0.731 h | Vd ([1]; plasma, read-out: Vss): 77.6 L/kg | Vd ([1]; plasma, read-out: Vz): 89.2 L/kg | AUC(0-inf) ([1]; plasma): 10.1 ng·h/mL | MRT last ([1]; plasma): 0.52 h | clearance ([1]; plasma): 1400 mL/min/kg | C0 ([1]; plasma): 12.8 ng/mL | plasma concentrations quantifiable up to [2, 4]: 1 h | Cmax ([2]; male, Sprague-Dawley, rat, plasma, PO 1000 mg/kg EK-ECP (Group 4), mean (CV), PFF-A N = 1): 1.58 ng/mL | Tmax ([2]; male, Sprague-Dawley, rat, plasma, PO 1000 mg/kg EK-ECP): 0.5 h
Structure (SMILES): Oc1cc(O)cc(Oc2c(O)cc(O)c3c2Oc2c(O)cc4oc5c(Oc6cc(O)cc(O)c6)c(O)cc(O)c5c4c2O3)c1 [PFF-A, phlorofucofuroeckol-A]
oral dose with CNS-directed effect (as low as) (mouse-model): 0.2 mg/kg/bw | solubility in water [3]: virtually insoluble in water | plasma concentrations ([2]; PO 100 mg/kg EK-ECP (Group 3), LLOQ 1 ng/mL, 100 mg/kg): below the lower limit of quantitation; also recorded: below the quantifiable limit

Source: article PMC11595589, “A Pharmacokinetic and Bioavailability Study of Ecklonia cava Phlorotannins Following Intravenous and Oral Administration in Sprague–Dawley Rats” (Marine Drugs, 2024)
